# Laboratory results reported in the supplement of paper PMC10307832.
# What was measured:
# Test in all cases: relative viability (nuclei count vs DMSO), 5 days (fraction); higher = more cells survive
# NCI-H661 = system: NCI-H661
# Summary of the method: (§1)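 The day after seeding in 1536-well plates, lung cancer cell lines were treated by pin tool with a single drug, or with a fixed anchor-drug dose together with five library-drug doses (not always all listed) in √10 steps. After 5 days, a combined fix-and-stain solution (final 0.05% Triton X-100, 1% formaldehyde, 1 ug/ml Hoechst) was added. Nuclei counted on 4× images gave relative viability as treated counts over vehicle counts, reported as the median of duplicate plates.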
# NCI-H441 = system: NCI-H441
# Summary of the method: as §1
# NCI-H460 = system: NCI-H460
# Summary of the method: as §1
# ABC-1 = system: ABC-1
# Summary of the method: as §1
# NCI-H727 = system: NCI-H727
# Summary of the method: as §1
# HCC-366 = system: HCC-366
# Summary of the method: as §1
# NCI-H1666 = system: NCI-H1666
# Summary of the method: as §1
# NCI-H3122 = system: NCI-H3122
# Summary of the method: as §1
# NCI-H2009 = system: NCI-H2009
# Summary of the method: as §1
# LK-2 = system: LK-2
# Summary of the method: as §1
# BEN = system: BEN
# Summary of the method: as §1
# PC-14 = system: PC-14
# Summary of the method: as §1
# NCI-H1650 = system: NCI-H1650
# Summary of the method: as §1
# COR-L 105 = system: COR-L 105
# Summary of the method: as §1
# SW 900 = system: SW 900
# Summary of the method: as §1
# EKVX = system: EKVX
# Summary of the method: as §1
# CAL-12T = system: CAL-12T
# Summary of the method: as §1
# HARA = system: HARA
# Summary of the method: as §1
# NCI-H1437 = system: NCI-H1437
# Summary of the method: as §1
# NCI-H2170 = system: NCI-H2170
# Summary of the method: as §1
# 201T = system: 201T
# Summary of the method: as §1
# LOU-NH91 = system: LOU-NH91
# Summary of the method: as §1
smiles,measurement,setting,value
O=c1cc(-c2cccc3c2Sc2ccccc2S3)oc(N2CCOCC2)c1 + O=C(CCCCCCC(=O)Nc1ccccc1)NO [Vorinostat] (partner 1 µM),relative viability,NCI-H661; first compound 0.08 µM,0.801
same,relative viability,NCI-H661; first compound 0.253 µM,0.808
same,relative viability,NCI-H661; first compound 0.8 µM,0.807
same,relative viability,NCI-H661; first compound 2.53 µM,0.734
same,relative viability,NCI-H661; first compound 8 µM,0.789
same,relative viability,NCI-H441; first compound 0.08 µM,0.921
same,relative viability,NCI-H441; first compound 0.253 µM,1.01
same,relative viability,NCI-H441; first compound 0.8 µM,1.14
same,relative viability,NCI-H441; first compound 2.53 µM,0.838
same,relative viability,NCI-H441; first compound 8 µM,0.935
same,relative viability,NCI-H460; first compound 0.08 µM,0.892
same,relative viability,NCI-H460; first compound 0.253 µM,1.49
same,relative viability,NCI-H460; first compound 0.8 µM,0.772
same,relative viability,NCI-H460; first compound 2.53 µM,0.692
same,relative viability,NCI-H460; first compound 8 µM,1.04
same,relative viability,ABC-1; first compound 0.08 µM,1.13
same,relative viability,ABC-1; first compound 0.253 µM,1.1
same,relative viability,ABC-1; first compound 0.8 µM,1.24
same,relative viability,ABC-1; first compound 2.53 µM,1.15
same,relative viability,ABC-1; first compound 8 µM,0.972
same,relative viability,NCI-H727; first compound 0.08 µM,1.01
same,relative viability,NCI-H727; first compound 0.253 µM,1.29
same,relative viability,NCI-H727; first compound 2.53 µM,1.09
same,relative viability,NCI-H727; first compound 8 µM,1.24
same,relative viability,HCC-366; first compound 0.08 µM,0.347
same,relative viability,HCC-366; first compound 0.253 µM,0.387
same,relative viability,HCC-366; first compound 0.8 µM,0.297
same,relative viability,HCC-366; first compound 2.53 µM,0.426
same,relative viability,HCC-366; first compound 8 µM,0.42
same,relative viability,NCI-H1666; first compound 0.08 µM,1
same,relative viability,NCI-H1666; first compound 0.253 µM,1.15
same,relative viability,NCI-H1666; first compound 0.8 µM,0.963
same,relative viability,NCI-H1666; first compound 2.53 µM,1.02
same,relative viability,NCI-H1666; first compound 8 µM,1.06
same,relative viability,NCI-H3122; first compound 0.08 µM,0.99
same,relative viability,NCI-H3122; first compound 0.253 µM,1.2
same,relative viability,NCI-H3122; first compound 0.8 µM,1.09
same,relative viability,NCI-H3122; first compound 2.53 µM,0.93
same,relative viability,NCI-H3122; first compound 8 µM,1.05
same,relative viability,NCI-H2009; first compound 0.08 µM,0.761
same,relative viability,NCI-H2009; first compound 0.253 µM,0.751
same,relative viability,NCI-H2009; first compound 0.8 µM,0.667
same,relative viability,NCI-H2009; first compound 2.53 µM,0.684
same,relative viability,NCI-H2009; first compound 8 µM,0.699
same,relative viability,LK-2; first compound 0.08 µM,0.261
same,relative viability,LK-2; first compound 0.253 µM,0.327
same,relative viability,LK-2; first compound 0.8 µM,0.369
same,relative viability,LK-2; first compound 2.53 µM,0.287
same,relative viability,LK-2; first compound 8 µM,0.358
same,relative viability,BEN; first compound 0.08 µM,0.521
same,relative viability,BEN; first compound 0.253 µM,0.645
same,relative viability,BEN; first compound 0.8 µM,0.594
same,relative viability,BEN; first compound 2.53 µM,0.59
same,relative viability,BEN; first compound 8 µM,0.629
same,relative viability,PC-14; first compound 0.08 µM,0.734
same,relative viability,PC-14; first compound 0.253 µM,0.879
same,relative viability,PC-14; first compound 0.8 µM,0.685
same,relative viability,PC-14; first compound 2.53 µM,0.628
same,relative viability,PC-14; first compound 8 µM,0.701
same,relative viability,NCI-H1650; first compound 0.08 µM,0.535
same,relative viability,NCI-H1650; first compound 0.253 µM,0.643
same,relative viability,NCI-H1650; first compound 0.8 µM,0.602
same,relative viability,NCI-H1650; first compound 2.53 µM,0.502
same,relative viability,NCI-H1650; first compound 8 µM,0.556
same,relative viability,COR-L 105; first compound 0.08 µM,0.782
same,relative viability,COR-L 105; first compound 0.253 µM,0.828
same,relative viability,COR-L 105; first compound 0.8 µM,0.751
same,relative viability,COR-L 105; first compound 2.53 µM,0.795
same,relative viability,COR-L 105; first compound 8 µM,1.1
same,relative viability,SW 900; first compound 0.253 µM,0.529
same,relative viability,SW 900; first compound 0.8 µM,0.493
same,relative viability,SW 900; first compound 2.53 µM,0.427
same,relative viability,SW 900; first compound 8 µM,0.393
same,relative viability,EKVX; first compound 0.08 µM,0.862
same,relative viability,EKVX; first compound 0.253 µM,0.839
same,relative viability,EKVX; first compound 0.8 µM,0.601
same,relative viability,EKVX; first compound 2.53 µM,0.675
same,relative viability,EKVX; first compound 8 µM,0.569
same,relative viability,CAL-12T; first compound 0.08 µM,0.677
same,relative viability,CAL-12T; first compound 0.253 µM,0.782
same,relative viability,CAL-12T; first compound 0.8 µM,0.765
same,relative viability,CAL-12T; first compound 2.53 µM,0.799
same,relative viability,CAL-12T; first compound 8 µM,0.699
same,relative viability,HARA; first compound 0.08 µM,0.538
same,relative viability,HARA; first compound 0.253 µM,0.59
same,relative viability,HARA; first compound 0.8 µM,0.442
same,relative viability,HARA; first compound 8 µM,0.36
same,relative viability,NCI-H1437; first compound 0.08 µM,0.857
same,relative viability,NCI-H1437; first compound 0.253 µM,0.9
same,relative viability,NCI-H1437; first compound 0.8 µM,0.847
same,relative viability,NCI-H1437; first compound 2.53 µM,0.761
same,relative viability,NCI-H1437; first compound 8 µM,0.857
same,relative viability,NCI-H2170; first compound 0.08 µM,0.857
same,relative viability,NCI-H2170; first compound 0.253 µM,0.952
same,relative viability,NCI-H2170; first compound 0.8 µM,0.92
same,relative viability,NCI-H2170; first compound 2.53 µM,0.693
same,relative viability,NCI-H2170; first compound 8 µM,0.932
same,relative viability,201T; first compound 0.08 µM,0.919
same,relative viability,201T; first compound 0.253 µM,1.05
same,relative viability,201T; first compound 0.8 µM,0.976
same,relative viability,201T; first compound 2.53 µM,0.912
same,relative viability,201T; first compound 8 µM,0.884
same,relative viability,LOU-NH91; first compound 0.08 µM,0.91
same,relative viability,LOU-NH91; first compound 0.253 µM,0.943
same,relative viability,LOU-NH91; first compound 0.8 µM,0.854
same,relative viability,LOU-NH91; first compound 2.53 µM,0.745
same,relative viability,LOU-NH91; first compound 8 µM,0.898
